From patent publication US20130231480A1, “SEQUENCE SPECIFIC DOUBLE-STRANDED DNA/RNA BINDING COMPOUNDS AND USES THEREOF” (GENEARREST LTD, priority 2010, published 2013)

Assays:
25 mer A-T-DNA [1] = assay: TM measurement by RT-PCR (HRM/SYBR green), A-T DNA; assay type: binding; details: for shift in TM of A-T DNA: (d/dT) fluorescence (465-510), compared to the control without addition; for TM of 25 mer A-T-DNA in the treated well: control wells 56.1-57.1° C.
Method: (§1) The primers listed in Table 4 were purchased from Sigma Aldrich (Israel). Primers number 1 and 3 are complementary and annealed to form CG/GC double-stranded DNA fragment, and primers number 5 and 7 are complementary and annealed to form AT double-stranded DNA fragment. The DNA complementary oligomers were hybridized in a medium salt buffer containing 10 mM NaCl, 10 mM sodium phosphate and 0.1 mM EDTA, pH 7.0. The samples were heated to 90° C. for 5 min, slowly cooled to 20° C. and left at 4° (1 until used for TM measurements with RT-PCR.
(§2) According to this method, 5 μl of a selected double-stranded DNA is incubated with a 5 μl solution of a selected compound at RT for 5 min; 10 μl HRM/SYB (high resolution melting/syber green I) (X2) are then added; and the TM is then measured. The run program for TM measurement is as following: keep temperature of final solution at 25° C. for 5 min, raise temperature up to 99° C. with a rate of 0.1° C./sec, and then cool to 37° C.
(§3) In a further study, the effect of AH-11 as well as three additional similar compounds having the same heterocyclic (pyridine) core on the TM of DNA double-stranded sequences consisting of A-T or C-G base pairs only was tested by RT-PCR as described in Materials and Methods. The additional compounds tested are 4-amino-N-(6-aminopyridin-2-yl)butanamide, N,N′-(pyridine-2,6-diyl)bis(3-aminopropanamide), and N,N′-(pyridine-2,6-diyl)bis(4-aminobutanamide), herein identified […] and AH-14, respectively (chemical structures are shown in Scheme 5). […] Compounds AH-11, AH-12 and AH-13 increased the TM of 25 mer A-T-DNA by 4.2° C., 5.7° C. and 9.9° C., respectively. In all four cases, no effect was observed on the TM of 25 mer C-G-DNA (the TM shift range between 0.3 and 0.8° C.).
(§4) In this study, the ability of monomer units M1-6a, designed to be specific for A-T base pairs only, and M4-4a, designed to be specific for C-G base pairs only, to effectively and selectively bind to DNA double-stranded sequences consisting of A-T or C-G base pairs only was tested using the RT-PCR method as described in Material and Methods. Nevertheless, in order to neutralize a possible influence of the carboxylic groups of these monomers on the specificity and selectivity of the monomers, the compounds practically used were 3-(2-amino-9-(2-((2-(tert-butoxycarbonylamino)ethyl)(2-ethoxy-2-oxoethyl)amino)-2-oxoethyl)-9H-purin-6-ylamino)-N,N,N-trimethylpropan-1-aminium and 3-(9-(2-((2-(tert-butoxycarbonylamino)ethyl)(2-ethoxy-2-oxoethyl)amino)-2-oxoethyl)-2-oxo-2,9-dihydro-1H-purin-6-ylamino)-N,N,N-trimethylpropan-1-aminium, which are analogs of these monomer units M1-6a and M4-4a, respectively, in which the carboxyl groups are protected with ethyl (see Scheme 10 and 17).

25 mer C-G-DNA [2] = assay: TM measurement by RT-PCR (HRM/SYBR green), C-G DNA; assay type: binding; details: for shift in TM of C-G DNA: (d/dT) fluorescence (465-510), compared to the control without addition; for TM of 25 mer C-G-DNA in the treated well: control wells 84.3-86° C.
Method: as §1, §2, §3, §4
The biological activity of the polymers synthesized, i.e., their ability to specifically interact with specific fragments of double-stranded DNA, was tested using the RT-PCR method, as described in Materials and Methods.

25 mer A-T-DNA [3] = assay: TM of treated duplex DNA by UV spectra at 260 nm, A-T DNA; assay type: binding; details: UV 260 nm; incubated at 37° C. for 36 hours; TM without compound 53° C.
Method: (§5) Duplex DNA (dsDNA-1,2) sequences are formed by incubating a solution of single-strand DNA-1 and single-strand DNA-2 (1:1) at 90° C. for 5 min, and slowly cooling down to RT for 1-2 hours. Treated Duplex DNA (dsDNA-1,2 bonded to a triplex forming molecule of the invention) is formed by incubating a solution of triplex forming molecule (TFM) of the invention and dsDNA-1,2 (1:1) at 37° C. for 36 hours.
(§6) The melting temperature (TM), i.e., the temperature at which a DNA double helix dissociates into single strands, measurements of Duplex DNA or Treated Duplex DNA are carried out using quartz cuvettes with an optical path length of 1 cm on a Cray 300 UV/vis spectrophotometer interfaced with a computer for data collection and analysis. The temperature is increased from 30° C. to 98° C. at the rate of 1° C./min, and the TM is determined by plotting the first derivative of the absorbance at 260 nm vs. temperature profile. TM is defined as the temperature at which half the molecules are single-stranded.
(§7) In order to test the effect of AH-11, designed to be specific for A-T base pair, on the TM of DNA double-stranded sequences consisting of A-T or C-G base pairs only, two solutions each containing one of the aforesaid sequences were incubated with a solution containing the compound AH-11 at 37° C. for 36 hours, and treated double-stranded DNA were formed. […]

25 mer C-G-DNA [4] = assay: TM of treated duplex DNA by UV spectra at 260 nm, C-G DNA; assay type: binding; details: UV 260 nm; incubated at 37° C. for 36 hours
Method: as §5, §6, §7

[5] = tested on: restriction enzyme (satI); assay: Prevention of restriction enzyme digestion of a PCR product (agarose gel); assay type: biochemical; details: for preventing restriction enzyme satI from digesting the DNA fragment: lanes 5+5B, 5+7B, 10+7B compared with cut 5 and cut 10 without AH-13
From the text: This can be seen by comparing lanes “5+5B”, “5+7B” and “[…]” with “cut 5” and “cut 10”, wherein no AH-13 was used.

25 mer A-T-DNA [6] = assay: TM measurement by RT-PCR (HRM/SYBR green), A-T DNA; assay type: binding; details: incubation time from 5 min to 60 or 100 min

| Compound | shift in TM of A-T DNA (25 mer A-T-DNA [1]) | TM of 25 mer A-T-DNA in the treated well (25 mer A-T-DNA [1]) | shift in TM of C-G DNA (25 mer C-G-DNA [2]) | effect on the TM of 25 mer A-T-DNA (25 mer A-T-DNA [1]) | TM of 25 mer C-G-DNA in the treated well (25 mer C-G-DNA [2]) | other results |
| --- | --- | --- | --- | --- | --- | --- |
| 3-(2-amino-9-(2-((2-(tert-butoxycarbonylamino)ethyl)(2-ethoxy-2-oxoethyl)amino)-2-oxoethyl)-9H-purin-6-ylamino)-N,N,N-trimethylpropan-1-aminium [analog of M1-6a] | 6.9 °C | 63 °C | < 1.0 °C |  |  | effect on the TM of 25 mer C-G-DNA (25 mer C-G-DNA [2]): did not affect |
| 3-(9-(2-((2-(tert-butoxycarbonylamino)ethyl)(2-ethoxy-2-oxoethyl)amino)-2-oxoethyl)-2-oxo-2,9-dihydro-1H-purin-6-ylamino)-N,N,N-trimethylpropan-1-aminium [analog of M4-4a] | 0.3 °C |  | 5.6 °C | did not affect | 90.1 °C |  |
| NCCC(=O)Nc1cccc(N)n1 [AH-11, 3-amino-N-(6-aminopyridin-2-yl)propanamide] | 4.2 °C |  |  |  |  | TM of 25 mer A-T-DNA after treatment (25 mer A-T-DNA [3]): 85 °C; effect on the TM of 25 mer C-G-DNA (25 mer C-G-DNA [4]): did not affect at all |
| NCCCC(=O)Nc1cccc(N)n1 [AH-12, 4-amino-N-(6-aminopyridin-2-yl)butanamide] | 5.7 °C |  |  |  |  |  |
| NCCC(=O)Nc1cccc(NC(=O)CCN)n1 [AH-13, N,N′-(pyridine-2,6-diyl)bis(3-aminopropanamide)] | 9.9 °C |  |  |  |  | interference with satI enzyme activity in lane 10+5B ([5]; 10 μl PCR product + 5 μl AH-13, both cut and uncut DNA present): not sufficient to completely interfere with the enzyme activity; preventing restriction enzyme satI from digesting the DNA fragment [5]: capable in a concentration dependent manner of preventing a restriction enzyme (satI); preventing restriction enzyme satI from digesting the DNA fragment ([5]; listed as AH-1): capable of specifically interfering with the activity of the restriction enzyme satI, in a concentration dependent manner |
| NCCCC(=O)Nc1cccc(NC(=O)CCCN)n1 [AH-14, N,N′-(pyridine-2,6-diyl)bis(4-aminobutanamide)] | 11.7 °C |  | 0.8 °C | most effective compound |  |  |
| CC(C)(C)OC(=O)NCCN(CC(=O)O)C(=O)Cn1cnc2c(NCCC[N+](C)(C)C)nc(N)nc21 [M1-6a, 3-(2-amino-9-(2-((2-(tert-butoxycarbonylamino)ethyl)(carboxymethyl)amino)-2-oxoethyl)-9H-purin-6-ylamino)-N,N,N-trimethylpropan-1-aminium] |  | 63 °C |  |  | 85.1 °C | effect on the TM of 25 mer C-G-DNA (25 mer C-G-DNA [2]): did not affect at all; TM of treated 25 mer A-T-DNA upon increasing the incubation time (25 mer A-T-DNA [6]): No difference |
| CC(C)(C)OC(=O)NCCN(CC(=O)O)C(=O)Cn1cnc2c(NCCC[N+](C)(C)C)[nH]c(=O)nc21 [M4-4a, 3-(9-(2-((2-(tert-butoxycarbonylamino)ethyl)(carboxymethyl)amino)-2-oxoethyl)-2-oxo-2,9-dihydro-1H-purin-6-ylamino)-N,N,N-trimethylpropan-1-aminium] |  | 57.4 °C |  | did not affect at all | 90.1 °C |  |
